Test results reported in US9951110B2, “Neuropeptides useful as insecticides” (THE STATE OF ISRAEL, MINISTRY OF AGRICULTURE & RURAL …, priority 2013, dated 2018).
Square brackets hold non-standard residues; d marks the D form. Ends that are not written are not given here. * marks the point of attachment. Cyclohexyl = cyclohexyl group capping the N-terminus, C1CCC(*)CC1

What was measured:
[1] = test system: Heliothis peltigera female moths; experiment: Topical application of agonistic peptides: stimulation of sex pheromone biosynthesis (solvent effect on penetrability); type: in vivo
Description: FIG. 6. is a graph showing the effect of a topically applied peptide (Peptide 12 in Table 1) on stimulation of sex pheromone biosynthesis in Heliothis peltigera female moths. • The peptide was tested at a concentration of 300 pmol and was applied in DDW, DMSO and IIS for different times (ranging from 0.5 to 7 h). • Statistical analysis compared pheromone content in the presence of the peptide in a given solvent (DDW, DMSO or IIS) at different time points (indicated by small black letters) and between solvents at the same time point (indicated by capital light grey letters). […] FIG. 7A and FIG. 7B are graphs showing the dose-response of a topically applied peptide [Peptide 12 (7A) and Peptide 11 (7B)] on stimulation of sex pheromone biosynthesis in Heliothis peltigera female moths. The peptide was tested at the indicated concentrations and was applied in DDW, IIS and DMSO for 3 h. • Statistical analysis compared pheromone content in the presence of the peptide in a given solvent (DDW, DMSO or IIS) at different concentrations (indicated by black letters) and between solvents at the same concentration (indicated by capital light grey letters). […] The tested peptides are applied onto the insect (e.g. moths) at scotophase (when pheromone is naturally synthesized) in a given solvent for the indicated times. Examination of the effect of carrier solvent on penetrability and activity was tested as a function of time and concentration with peptides 11 and 12 (see Table 1) which are agonistic peptides, i.e. stimulate sex pheromone production in female moths.

[2] = test system: Heliothis peltigera female moths; experiment: Environmental (outdoor storage) stability, read out as sex pheromone production after injection; type: physicochemical; conditions: for stability: pheromone-stimulating activity after storage vs peptide stored at -80° C.: direct sunlight, about 31° C.; for stability in the course of storage: 4 weeks
Description: FIG. 9. is a graph showing the stability of Peptide 12 in a powder form under different storage conditions. • The stability was evaluated by determining sex pheromone production in Heliothis peltigera females exposed to said peptide. • The storage conditions are: (i) exposure to direct sunlight and an average temperature of about 31° C. for 1 week (“outdoor 1 week”); (ii) room temperature (RT); and (iii) −80° C. • Sex pheromone content is expressed as a percentage of the pheromone content obtained by injection of a peptide stored at −80° C. (defined as 100%). Statistical analysis compared pheromone content generated by injection of a peptide stored at room temperature (RT) for 1 week or a peptide kept for 1 week outdoors with that of the control (a peptide stored at −80° C.). […] FIG. 10A and FIG. 10B are graphs showing the stability of Peptide 12 dissolved in DDW or ITS at a concentration of 1 nmol (10A) or 100 pmol (10B) under different storage conditions. • The stability was evaluated by determining sex pheromone production in Heliothis peltigera females exposed to said peptide. • The storage conditions are: (i) exposure to direct sunlight and an average temperature of about 31° C. for 1 week (“outdoor 1 week”); and (ii) −80° C. • Sex pheromone content is expressed as a percentage of the pheromone content obtained by injection of a peptide stored as a dry powder at −80° C. (defined as 100%). Statistical analysis compared the pheromone content generated by the different treatments with that of the control (a peptide stored at −80° C.). […] FIG. 11A and FIG. 11B are graphs showing the stability of Peptide 12 dissolved in DDW (A) or IIS (B) at a concentration of 1 nmol, and exposed to direct sunlight and temperatures in the range of 27° C. to 31° C. for 1-4 weeks or by a peptide stored at 4° C. for 1-4 weeks. • The stability was evaluated by determining sex pheromone production in Heliothis peltigera females exposed to said peptide. • Activity is expressed as a percentage of that obtained by Peptide 12 stored at −80° C. (defined as 100%, not shown in the figures). • Statistical analysis compared activity at the same storage time at 4° C. and outdoor, and as a function of time within the same treatment (outdoor or 4° C.) as a function of storage time (capital letters). […] This assay is used to test the agonistic properties of the tested peptides (in adult females), and to determine the peptides melanotropic agonistic or antagonistic properties (in larvae). It was also used to determine the activity of peptides that were stored outdoors for different amounts of time. In order to evaluate the environmental stability of the peptides, peptide 12 (in Table 1) was tested. Stability was monitored by exposing a tube containing the peptide, either in the form of a dry powder or in solution made up in either DDW or IIS at a concentration of 100 pmol or 1 nmol, to direct sun light and a temperature range of 27 to 31° C. (“outdoor”). […] Similar results were obtained at a lower dose of the peptide, of 100 pmol (FIG. 10B). The peptide was also tested for stability for 4 weeks when dissolved in either DDW or IIS, at a concentration of 1 nmol, under the same conditions as above at a temperature range of 27° C. to 31° C.

[3] = test system: Heliothis peltigera female moths; experiment: Topical application: inhibition of sex pheromone biosynthesis (cuticular bioavailability); type: in vivo
Description: FIG. 2. is a graph showing the effect of topically applied peptides on the inhibition of sex pheromone biosynthesis in Heliothis peltigera female moths. • The tested peptides are those listed in Table 1 (1-10, respectively). • Peptides were tested at a concentration of 10 pmol and were applied in IIS (0.5% ethanol, 0.05% Tween-80 in DDW), and DDW for 1 h. • Sex pheromone content is expressed as a percentage of the endogenous pheromone content obtained using control untreated moths (defined as 100%). Statistical analysis compared pheromone content in the presence of each peptide with that obtained with the corresponding solvents themselves (indicated by an asterisk).
FIG. 3A and FIG. 3B are graphs showing the dose response of Ac-A-dPhe-4 (3A) or Ac-A-dPhe-6 (3B) on inhibition of sex pheromone biosynthesis in Heliothis peltigera female moths. Peptides were applied in DDW for 1 h. • Sex pheromone content is expressed as a percentage of the endogenous pheromone content obtained using control untreated moths (defined as 100%). Statistical analysis compared pheromone content in the presence of each peptide at the indicated concentrations with that obtained with the solvent itself (indicated by an asterisk). A similar statistical analysis was also made against the pheromone content of untreated moths (indicated by #). […] Differences in the potency of the peptides at the indicated concentrations are depicted by letters.
FIG. 4. is a graph showing the time response of 1 nmol Ac-A-dPhe-4 and Ac-A-dPhe-6 (applied in DDW) on inhibition of sex pheromone biosynthesis in Heliothis peltigera female moths. • Sex pheromone content is expressed as a percentage of the endogenous pheromone content obtained using control untreated moths (defined as 100%). Statistical analysis compared pheromone content in the presence of each peptide at the indicated times with that obtained with the solvent itself at the same time point (indicated by an asterisk). […] Differences in the potency of the peptides at the indicated time points are depicted by letters. (Ac-A-dPhe-4: small letters; Ac-A-dPhe-6: capital letters).
FIG. 5A to FIG. 5C are graphs showing the effect of topically applied peptides on inhibition of sex pheromone biosynthesis in Heliothis peltigera female moths. • The tested peptides are those listed in Table 1 (1-6, respectively). Peptides were tested at a concentration of 1000 pmol (5A), 300 pmol (5B) or 100 pmol (5C) and were applied in DDW, DMSO and IIS for 7h. • Sex pheromone content is expressed as a percentage of the endogenous pheromone content obtained using control untreated moths (defined as 100%). Statistical analysis compared pheromone content in the presence of each peptide in a given solvent (DDW, DMSO or ITS) with that obtained with the solvents themselves (indicated by an asterisk).
a) Topical Application (TA)
This assay is used to determine cuticular penetrability.
The tested peptides are applied onto the insect (e.g. moths) at scotophase (when pheromone is naturally synthesized) in a given solvent for the indicated times.
Antagonistic activity was tested at a concentration of 10 pmol and the peptides were topically applied in two solvents: DDW and IIS (FIG. 2). […] Ac-A-dPhe-6 was the second best in IIS inhibiting pheromone biosynthesis by 74%.
Only minor differences in activity is observed as a function of a dose (with the exception of Ac-A-dPhe-4 at 1000 pmol, which inhibited pheromone production to a lesser extent of about 50%).
All experiments were carried out at the scotophase and the peptides were applied one hour before pheromone glands were excised (+5) and tested for pheromone content (at the 6th hour of the scotophase when the pheromone content is at its highest level). The high inhibition obtained under the tested conditions, indicates the extremely fast and high penetrability and bioactivity of the peptides of the invention. […]

[4] = test system: Spodoptera littoralis larvae; experiment: Melanotropic inhibitory activity: injection with a stimulator (PBAN, PT, LPK, DH); type: in vivo
Description: FIG. 12. is a graph showing the melanotropic inhibitory activity of the peptides of the invention against different stimulators of the PK/PBAN family: PBAN, PT (pheromonotropin), LPK (leucopyrokinin), DH (diapause hormone). • Degree of cuticular melanization is expressed as a percentage of the melanization obtained by injection the elicitor itself (PBAN, PT, LPK or DH) in the absence of the tested peptide (not shown). Statistical analysis compared the degree of melanization in the presence and absence of the tested peptide with any given elicitor. An asterisk indicates a significant difference between the degree of melanization obtained in the presence of the peptide. This assay is used to test the agonistic properties of the tested peptides (in adult females), and to determine the peptides melanotropic agonistic or antagonistic properties (in larvae). It was also used to determine the activity of peptides that were stored outdoors for different amounts of time. The peptides are injected into either adult female insects (e.g. moths) at photophase (when pheromone is not synthesized naturally, but the insect has the ability to produce pheromone upon stimulation with a agonist) or into 5th instar larvae. Agonistic properties were tested by injection of the peptides alone; antagonistic properties were determined by injection of the peptide together with a stimulator. The ability of the peptides to inhibit cuticular melanin synthesis was tested in Spodoptera littoralis larvae. Inhibitory activity was tested by injecting the peptides to Spodoptera littoralis larvae together with a given stimulator: PBAN, PT, LPK and DH. Inhibition is expressed as 100 minus the ratio in percentage (%) between the extents of cuticular melanization obtain in the presence and absence of the tested peptide (Table 2).

“Tyr-Phe-Trp-Pro-Arg-Leu-amide (YFWPRL-NH2) [Peptide 11, agonistic peptide lacking a dPhe residue, tested for bioavailability]” was tested, and the “stimulation of sex pheromone biosynthesis” value ([1]; 3 h, in DDW and IIS) was “barely any activity” and the “stimulation of sex pheromone biosynthesis” value ([1]; 3 h, in DMSO) was “very active”.

In the case of “Acetyl-Tyr-Phe-Trp-Pro-Arg-Leu-amide (Ac-YFWPRL-NH2) [Peptide 12, agonistic peptide lacking a dPhe residue, tested for bioavailability and environmental stability]”, the “stimulation of sex pheromone biosynthesis: effect of carrier on bioavailability” value ([1]; 300 pmol, DDW, DMSO and IIS, 0.5 to 7 h) is reported as “IIS has been found to be the best carrier”, the “stimulation of sex pheromone biosynthesis, dose response by carrier” value ([1]; 3 h, DDW, IIS, DMSO) is reported as “higher activity in IIS compared to DDW or DMSO” and the “stability: pheromone-stimulating activity after storage vs peptide stored at -80° C.” value (“stability … vs peptide stored at -80° C.” below) ([2]; dissolved in DDW or IIS, 100 pmol, 1 week) is reported as “no significant difference”. The “activity of peptide kept outdoor vs at 4° C. at the same storage time” value ([2]; dissolved in DDW or IIS, 1 nmol, 1-4 weeks) was “No differences”, the “stability … vs peptide stored at -80° C.” value ([2]; dissolved in DDW or IIS, 1 nmol, 1 week) was “no significant difference” and the “stability in the course of storage” value ([2]; dissolved in DDW, 1 nmol, outdoor 27° C. to 31° C. or 4° C.) was “the activity dropped in the course of storage”. The “stability in the course of storage” value ([2]; dissolved in IIS, 1 nmol, outdoor 27° C. to 31° C.) was “much more stable” and the “stability … vs peptide stored at -80° C.” value ([2]; dry powder, 1 week, or room temperature) was “no significant difference”.

“Cyclohexyl-Ala-[dPhe]-Pro-Arg-Leu-amide (Cyclohexyl-A[dF]PRL-NH2; SMILES CC(C)C[C@H](NC(=O)[C@H](CCCNC(=N)N)NC(=O)[C@@H]1CCCN1C(=O)[C@@H](Cc1ccccc1)NC(=O)[C@H](C)NC1CCCCC1)C(N)=O) [Cyc-A-dPhe-4]” was tested, and the “comparison of activity in IIS vs. tap water” value ([3]; topical application) was “No differences”, the “lowering of pheromone content compared to the solvent” value ([3]; topical, 10 pmol, in IIS, 1 h) was “failed to lower pheromone content” and the “Melanotropic inhibitory activity, stimulator DH” value ([4]; injected with DH (diapause hormone), 100 pm) was 15%. For the same substance, the “Melanotropic inhibitory activity, stimulator LPK” value ([4]; injected with LPK (leucopyrokinin), 100 pm) was 100%, the “Melanotropic inhibitory activity, stimulator PBAN” value ([4]; injected with PBAN, 100 pm, inhibition = 100 minus % melanization with vs without peptide) was 7% and the “Melanotropic inhibitory activity, stimulator PT” value ([4]; injected with PT (pheromonotropin), 100 pm) was 6%. For the same substance, the “inhibition of melanin synthesis stimulated by LPK” value ([4]; stimulator LPK) was “inhibited LPK”.
